Here are results for two compounds from patent US10039743B2, “Method of treating presbyopia using dithiol compounds and their derivatives” (Encore Health, LLC, priority 2009, dated 2018).

The conditions of data set [1]: cited from earlier work.
In another data set the test system is mouse lenses. Kind of data set: Increase in elasticity: change in lens diameter (ΔD) under coverslip load in lens organ culture. It counts as cell-based. The conditions noted are these: lipoic acid at concentrations ≥9.6 μM, 8-15 hours incubation, vs control; p<0.0001.
Data set [2] deals with protein disulfides in the mouse lenses. Kind of data set: Decrease in disulfide bonds: protein SH / SS groups in lens homogenates by differential fluorescent alkylation. It counts as cell-based. The protocol: FIG. 5 depicts a scattergram of the percent of the total protein SH groups in disulfide bonds. Free SH groups were alkylated with 4-acctamido-4′-maleimidylstilbcne-2,2′-sulfonic acid (c, 1 μM, 5 μM, 9.6 μM, 50 μM, 96 μM) or 7-diethylamino-3-(4′maleimidylphenyl)-4-methyl coumarin (500 μM, and 500 μM c). Following removal of the first alkylating agent, the S—S bonds were reduced and alkylated with fluorescein-5-maleimide. Absorption spectra were used to calculated total protein (A280 nm), free protein SH (A322 or A384), and protein SS (A490) using the appropriate extinction coefficients. The symbol $ indicates statistically significant difference of mean with mean of control (c, p≤0.05).
Mouse lenses were homogenized in a denaturing buffer containing a fluorescent alkylating agent to modify the free SH groups. After removing the alkylating agent homogenates were reduced and alkylated with a different fluorescent alkylating agent. Absorption spectra of the modified proteins were used to calculate free protein SH and protein SS groups.

As for `N[C@@H](CSSC[C@H](N)C(=O)O)C(=O)O` [cystine, 3,3′-disulanedylbis(2-aminopropanoic acid)], the “limit of solubility in aqueous solution” value in data set [1] is 20 µM.

On to `O=C(O)CCCCC1CCSS1` (stereo not shown) [lipoic acid, 5-(1,2-dithiolan-3-yl)pentanoic acid], for which the “change in lens diameter produced by the force (coverslip), ΔD” value with mouse lenses is “statistically significant increase”. In addition, in data set [2] (500 μM lipoic acid vs 500 μM control, p=0.027), the “percent of total protein SH groups in disulfide bonds, mean vs 500 μM control” value is on record as “significantly different”. The “protein disulfides (percent of total protein SH groups in disulfide bonds)” value in data set [2] (lipoic acid at concentrations ≥9.6 μM, vs control, p≤0.05) was “statistically significant decrease”.
